Calls of active or inactive are those of the source. The rule behind the calls is not given here.
How the values were obtained:
MGC-803 = assay: Antiproliferative activity against human MGC-803 cells assessed as inhibition of cell proliferation measured after 48 hrs by CCK8 assay; type: functional, cell-based; settings: MGC-803, 48 h
A549 = assay: Antiproliferative activity against human A549 cells assessed as inhibition of cell proliferation measured after 48 hrs by CCK8 assay; type: functional, cell-based; settings: A549, 48 h
KYSE-30 = assay: Antiproliferative activity against human KYSE-30 cells assessed as inhibition of cell proliferation measured after 48 hrs by CCK8 assay; type: functional, cell-based; settings: KYSE-30, 48 h
KYSE-450 [1] = assay: Antiproliferative activity against human KYSE-450 cells assessed as inhibition of cell proliferation measured after 48 hrs by CCK8 assay; type: functional, cell-based; settings: KYSE-450, 48 h
KYSE-510 = assay: Antiproliferative activity against human KYSE-510 cells assessed as inhibition of cell proliferation measured after 48 hrs by CCK8 assay; type: functional, cell-based; settings: KYSE-510, 48 h
ECa-109 cell line = assay: Antiproliferative activity against human Eca-109 cells assessed as inhibition of cell proliferation measured after 48 hrs by CCK8 assay; type: functional, cell-based; settings: ECa-109, 48 h
Tubulin (Homo sapiens) = Tubulin (Homo sapiens) (UniProt P68371+Q9H4B7+P0DPH7+P68366+Q13509+Q71U36+P04350+Q3ZCM7+P07437+P68363+Q9BQE3+Q6PEY2+Q13885+Q9BVA1+Q9BUF5); assay: Inhibition of tubulin polymerization in human KYSE-450 cells assessed by disorganised spindle at 1.25 to 2.5 uM measured after 48 hrs by immunoflourescence assay relative to colchicine; type: cell-based; settings: dose 1.25-2.5 µM
Tubulin = assay: Inhibition of tubulin polymerization in human KYSE-450 cells measured by EBI competition assay relative to colchicine; type: cell-based
KYSE-450 [2] = assay: Antiproliferative activity against human KYSE-450 cells assessed reduced cell viability at 1 to 80 uM measured after 48 hrs; type: functional, cell-based; settings: dose 1-80 µM
KYSE-450 [3] = assay: Antiproliferative activity against human KYSE-450 cells assessed reduced cell viability at 0.313 to 2.5 uM; type: functional, cell-based; settings: dose 0.313-2.5 µM, time 20-40 hrs, TDE = time-dependent effect
KYSE-450 [4] = assay: Antiproliferative activity against human KYSE-450 cells assessed reduced cell viability measured after 20 to 60 hrs; type: functional, cell-based; settings: dose 0.313-2.5 µM, time 20-60 hrs
KYSE-450 [5] = assay: Induction of apoptosis in human KYSE-450 cells assessed by round cells at 0.313 to 2.5 uM measured after 48 hrs by DAPI staining based microscopic method; type: functional, cell-based; settings: dose 0.313-2.5 µM
KYSE-450 [6] = assay: Induction of apoptosis in human KYSE-450 cells assessed by smaller nucleus at 0.313 to 2.5 uM measured after 48 hrs by DAPI staining based microscopic method; type: functional, cell-based; settings: dose 0.313-2.5 µM
KYSE-450 [7] = assay: Induction of apoptosis in human KYSE-450 cells assessed by concentrated nucleus at 0.313 to 2.5 uM measured after 48 hrs by DAPI staining based microscopic method; type: functional, cell-based; settings: dose 0.313-2.5 µM
KYSE-450 [8] = assay: Antiproliferative activity against human KYSE-450 cells assessed as inhibition of colony formation at 0.188 uM measured after 7 days by colony formation assay; type: functional, cell-based; settings: time 7.0 day

Compound | IC50 (MGC-803) | IC50 (A549) | IC50 (KYSE-30) | other results
COc1cc(C(=O)N2CCCc3ccccc32)cc(OC)c1OC | 4.41 µM | 23.7 µM | 6.72 µM | –
COc1ccc(CC(=O)N2CCc3cc(Br)ccc32)cc1 | 28.7 µM | 24.8 µM | > 40 µM | –
COc1cc2c(c(OC)c1OC)-c1ccc(OC)c(=O)cc1[C@@H](NC(C)=O)CC2 [COLCHICINE] | 1.07 µM | 0.19 µM | 0.28 µM | –
O=C(c1ccc(Br)cc1)N1CCc2cc(Br)ccc21 | 33.6 µM | > 40 µM | 26.8 µM | –
O=C(Cc1ccc(F)cc1)N1CCc2cc(Br)ccc21 | > 40 µM | > 40 µM | > 40 µM | –
COc1cc(C(=O)N2CCCCc3ccccc32)cc(OC)c1OC | 4.3 µM | 21.7 µM | 16.6 µM | –
COc1cc(CC(=O)N2CCc3cc(Br)ccc32)cc(OC)c1OC | 22.4 µM | 24.8 µM | 20.2 µM | –
O=C(Cc1ccc(Br)cc1)N1CCc2cc(Br)ccc21 | 35.8 µM | > 40 µM | 20.7 µM | –
O=C(c1ccc(F)cc1)N1CCc2cc(Br)ccc21 | 24.1 µM | 18.9 µM | 22.1 µM | –
COc1cc(C(=O)N2CCc3cc(Br)ccc32)cc(OC)c1OC | 1.84 µM | 6.82 µM | 1.61 µM | IC50 (KYSE-450 [1]): 1.49 µM; IC50 (KYSE-510): 2.08 µM; IC50 (ECa-109 cell line): 2.24 µM; inhibition (Tubulin (Homo sapiens)): Active; IC50 (Tubulin): 3.4 µM; Activity (KYSE-450 [2]): Active; Activity (KYSE-450 [3]): Tde; Activity (KYSE-450 [4]): Dose-Dependent Effect; Activity (KYSE-450 [5]): Active; Activity (KYSE-450 [6]): Active; Activity (KYSE-450 [7]): Active; Activity (KYSE-450 [8]): Active
O=C(c1ccccc1)N1CCc2cc(Br)ccc21 | 28.5 µM | > 40 µM | 20.3 µM | –
COc1ccc(C(=O)N2CCc3cc(Br)ccc32)cc1 | 18.8 µM | 21.1 µM | 18.9 µM | –
COc1cc(C(=O)N2CCc3ccccc32)cc(OC)c1OC | 7.57 µM | 22 µM | 7.72 µM | –
Cc1ccc(C(=O)N2CCc3cc(Br)ccc32)cc1 | > 40 µM | 38.9 µM | > 40 µM | –
COc1cc(C(=O)N2CCc3cc([N+](=O)[O-])ccc32)cc(OC)c1OC | 8.32 µM | 17.7 µM | 6.55 µM | –
O=C(Cc1ccccc1)N1CCc2cc(Br)ccc21 | 82.8 µM | 28.5 µM | > 40 µM | –
Cc1ccc(CC(=O)N2CCc3cc(Br)ccc32)cc1 | 38.2 µM | > 40 µM | 33.2 µM | –
